Reference: patent US20100076015A1, “Aminopyridine Derivatives” (VANTIA LIMITED, priority 2008, published 2010)

Assays:
Type in all cases: biochemical
[1] = molecular target: plasma kallikrein (Homo sapiens, UniProt P03952); test: Enzyme selectivity: plasma kallikrein (chromogenic substrate S-2302); details: chromogenic substrate S-2302, 37° C.
Method: (§1) Determination of Enzyme Selectivity
(§2) Selected compounds were further screened for inhibitory activity against other trypsin-like serine proteases using the appropriate enzyme and chromogenic substrate (Chromogenix AB). The activity against the following human enzymes was tested (substrate in brackets):—plasma kallikrein (S-2302), thrombin (S-2238), plasmin (S-2390) and trypsin (S-2222). The enzyme was incubated at 37° C. with the chromogenic substrate. Residual enzyme activity (initial rate of reaction) was determined by measuring the change in optical absorbance at 405 nm.

[2] = molecular target: plasmin (Homo sapiens, UniProt P00747); test: Enzyme selectivity: plasmin (chromogenic substrate S-2390); details: chromogenic substrate S-2390, 37° C.
Chain of plasmin (P00747 581-810 limits assumed): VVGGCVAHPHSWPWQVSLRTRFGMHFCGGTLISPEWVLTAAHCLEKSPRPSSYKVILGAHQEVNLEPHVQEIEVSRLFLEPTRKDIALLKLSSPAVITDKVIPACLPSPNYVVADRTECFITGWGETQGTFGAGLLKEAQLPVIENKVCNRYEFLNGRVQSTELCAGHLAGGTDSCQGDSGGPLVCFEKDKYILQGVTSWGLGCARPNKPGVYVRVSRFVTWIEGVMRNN
Chain of plasmin (P00747 97-580 partner limits assumed): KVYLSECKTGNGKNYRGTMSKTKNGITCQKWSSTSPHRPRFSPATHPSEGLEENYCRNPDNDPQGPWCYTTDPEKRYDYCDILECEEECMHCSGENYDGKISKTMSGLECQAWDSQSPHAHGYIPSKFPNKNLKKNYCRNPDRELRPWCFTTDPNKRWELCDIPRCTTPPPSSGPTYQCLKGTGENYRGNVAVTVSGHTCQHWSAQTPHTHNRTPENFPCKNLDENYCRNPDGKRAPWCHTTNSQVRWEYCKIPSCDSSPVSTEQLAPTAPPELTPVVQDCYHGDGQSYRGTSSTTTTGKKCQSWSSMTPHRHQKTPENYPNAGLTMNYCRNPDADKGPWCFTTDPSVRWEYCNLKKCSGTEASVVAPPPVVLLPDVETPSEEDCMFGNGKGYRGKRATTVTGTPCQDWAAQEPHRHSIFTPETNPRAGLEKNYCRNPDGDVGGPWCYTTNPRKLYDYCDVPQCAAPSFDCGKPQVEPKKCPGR
Method: as §1, §2

[3] = molecular target: T1, Human KLK1 (Homo sapiens, UniProt P06870); test: Determination of the IC50 for KLK1 (fluorogenic substrate H-DVal-Leu-Arg-AFC); details: 37° C.
T1 construct: purchased Callbiochem (Calbiochem)
T1 sequence (P06870 25-262): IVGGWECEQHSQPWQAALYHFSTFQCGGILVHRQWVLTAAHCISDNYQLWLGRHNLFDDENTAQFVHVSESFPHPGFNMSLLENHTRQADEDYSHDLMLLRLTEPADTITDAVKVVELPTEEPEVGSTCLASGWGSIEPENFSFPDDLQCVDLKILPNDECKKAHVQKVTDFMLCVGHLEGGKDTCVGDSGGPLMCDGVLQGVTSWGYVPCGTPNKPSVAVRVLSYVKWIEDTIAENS
Outline: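 Human KLK1 incubated at 37 °C with fluorogenic substrate H-DVal-Leu-Arg-AFC and a range of test compound concentrations. Residual activity was taken as initial reaction rate from absorbance change at 410 nm, and the IC50 derived from it.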

[4] = molecular target: thrombin (Homo sapiens, UniProt P00734); test: Enzyme selectivity: thrombin (chromogenic substrate S-2238); details: chromogenic substrate S-2238, 37° C.
Method: as §1, §2

[5] = molecular target: trypsin; test: Enzyme selectivity: trypsin (chromogenic substrate S-2222); details: human enzyme, chromogenic substrate S-2222, 37° C.
Method: as §1, §2

Chain of plasma kallikrein (P03952 20-638): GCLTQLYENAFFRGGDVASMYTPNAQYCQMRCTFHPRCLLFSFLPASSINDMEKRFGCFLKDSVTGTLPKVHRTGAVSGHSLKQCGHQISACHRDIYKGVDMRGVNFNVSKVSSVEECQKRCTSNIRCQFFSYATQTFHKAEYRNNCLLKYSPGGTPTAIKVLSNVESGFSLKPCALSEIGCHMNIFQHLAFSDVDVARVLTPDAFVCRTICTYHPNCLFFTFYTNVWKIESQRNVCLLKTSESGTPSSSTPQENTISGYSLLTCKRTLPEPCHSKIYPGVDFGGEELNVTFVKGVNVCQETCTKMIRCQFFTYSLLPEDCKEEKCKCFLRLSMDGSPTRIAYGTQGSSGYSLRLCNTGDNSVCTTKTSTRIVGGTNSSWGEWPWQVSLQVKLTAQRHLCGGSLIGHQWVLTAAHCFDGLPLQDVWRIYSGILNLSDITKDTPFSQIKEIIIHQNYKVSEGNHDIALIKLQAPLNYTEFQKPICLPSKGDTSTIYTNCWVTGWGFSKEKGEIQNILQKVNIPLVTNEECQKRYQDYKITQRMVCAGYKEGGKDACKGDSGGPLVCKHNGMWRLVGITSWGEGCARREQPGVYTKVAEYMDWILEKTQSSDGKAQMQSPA

Row | Compound | IC50 [1] [µM] | IC50 [2] [µM] | IC50 [3] [µM] | IC50 [4] [µM] | IC50 [5] [µM]
1 | CCC(C)[C@@H](N)C(=O)N[C@@H](Cc1cccc2ccccc12)C(=O)NCc1ccc(N)nc1 (stereo partly drawn) [Example 1, (R)-2-Amino-3-methyl-pentanoic acid {(S)-1-[(6-amino-pyridin-3-ylmethyl)-carbamoyl]-2-naphthalen-1-yl-ethyl}-amide] | > 10 | > 10 | 0.00096 | > 10 | > 10
2 | CCC(C)[C@@H](N)C(=O)N[C@@H](CC1CCCC2CCCCC21)C(=O)NCc1ccc(N)nc1 (stereo partly drawn) [Example 2, (R)-2-Amino-3-methyl-pentanoic acid [(S)-1-[(6-amino-pyridin-3-ylmethyl)-carbamoyl]-2-(decahydro-naphthalen-1-yl)-ethyl]-amide] | > 10 | > 10 | 0.001 | > 10 | > 10
3 | CCC(C)[C@@H](NC)C(=O)N[C@@H](Cc1ccc(Cl)c(Cl)c1)C(=O)NCc1ccc(N)nc1 (stereo partly drawn) [Example 3, (R)-3-Methyl-2-methylamino-pentanoic acid [(S)-1-[(6-amino-pyridin-3-ylmethyl)-carbamoyl]-2-(3,4-dichloro-phenyl)-ethyl]-amide] | > 10 | > 10 | 0.00022 | > 10 | > 10
4 | Nc1ccc(CNC(=O)[C@H](Cc2ccc(Cl)c(Cl)c2)NC(=O)[C@H]2CCCN2)cn1 [Example 4, (R)-Pyrrolidine-2-carboxylic acid [(S)-1-[(6-amino-pyridin-3-ylmethyl)-carbamoyl]-2-(3,4-dichloro-phenyl)-ethyl]-amide] | > 10 | > 10 | – | > 10 | > 10
5 | CN1CCC[C@@H]1C(=O)N[C@@H](Cc1ccc(F)c(F)c1)C(=O)NCc1ccc(N)nc1 [Example 5, (R)-1-Methyl-pyrrolidine-2-carboxylic acid [(S)-1-[(6-amino-pyridin-3-ylmethyl)-carbamoyl]-2-(3,4-difluoro-phenyl)-ethyl]-amide] | > 10 | > 10 | 0.0013 | > 10 | > 10
6 | CCC(C)[C@H](N)C(=O)N[C@@H](C(=O)NCc1ccc(N)nc1)C(C1CCCCC1)C1CCCCC1 (stereo partly drawn) [Example 11, (S)-2-Amino-3-methyl-pentanoic acid [(R)-1-[(6-amino-pyridin-3-ylmethyl)-carbamoyl]-2,2-dicyclohexyl-ethyl]-amide] | > 10 | > 10 | 0.0049 | > 10 | > 10
7 | Nc1ccc(CNC(=O)[C@H](CC2CCCC3CCCCC32)NC(=O)[C@H](N)Cc2ccc(Cl)cc2)cn1 (stereo partly drawn) [Example 13, (R)-2-Amino-N-[(S)-1-[(6-amino-pyridin-3-ylmethyl)carbamoyl]-2-(decahydro-naphthalen-1-yl)-ethyl]-3-(4-chloro-phenyl)-propionamide] | > 10 | > 10 | 0.0098 | > 10 | > 10
8 | CCC(C)[C@@H](N)C(=O)N[C@@H](CC1CCCCC1)C(=O)NCc1ccc(N)nc1 (stereo partly drawn) [Example 20, (R)-2-Amino-3-methyl-pentanoic acid {(S)-1-[(6-amino-pyridin-3-ylmethyl)-carbamoyl]-2-cyclohexyl-ethyl}-amide] | > 10 | > 10 | 0.0043 | > 10 | > 10
9 | CCC(C)[C@@H](N)C(=O)N[C@@H](Cc1ccccc1C(F)(F)F)C(=O)NCc1ccc(N)nc1 (stereo partly drawn) [Example 25, (R)-2-Amino-3-methyl-pentanoic acid [(S)-1-[(6-amino-pyridin-3-ylmethyl)-carbamoyl]-2-(2-trifluoromethyl-phenyl)-ethyl]-amide] | > 10 | > 10 | 0.0098 | > 10 | > 10
10 | CCC(C)[C@@H](N)C(=O)N[C@@H](Cc1ccccc1)C(=O)NCc1ccc(N)nc1 (stereo partly drawn) [Example 26, (R)-2-Amino-3-methyl-pentanoic acid {(S)-1-[(6-amino-pyridin-3-ylmethyl)-carbamoyl]-2-phenyl-ethyl}-amide] | > 10 | > 10 | 0.0205 | > 10 | > 10
11 | CCC(C)[C@@H](N)C(=O)N[C@@H](Cc1cccc(C)c1)C(=O)NCc1ccc(N)nc1 (stereo partly drawn) [Example 27, (R)-2-Amino-3-methyl-pentanoic acid {(S)-1-[(6-amino-pyridin-3-ylmethyl)-carbamoyl]-2-m-tolyl-ethyl}-amide] | > 10 | > 10 | 0.0025 | > 10 | > 10
12 | CCC(C)[C@@H](N)C(=O)N[C@@H](Cc1cccc(F)c1)C(=O)NCc1ccc(N)nc1 (stereo partly drawn) [Example 29, (R)-2-Amino-3-methyl-pentanoic acid [(S)-1-[(6-amino-pyridin-3-ylmethyl)-carbamoyl]-2-(3-fluoro-phenyl)-ethyl]-amide] | > 10 | > 10 | 0.0102 | > 10 | > 10
13 | CCC(C)[C@@H](N)C(=O)N[C@@H](Cc1cccc(C(F)(F)F)c1)C(=O)NCc1ccc(N)nc1 (stereo partly drawn) [Example 30, (R)-2-Amino-3-methyl-pentanoic acid [(S)-1-[(6-amino-pyridin-3-ylmethyl)-carbamoyl]-2-(3-trifluoromethyl-phenyl)-ethyl]-amide] | > 10 | > 10 | 0.0011 | > 10 | > 10
14 | Nc1ccc(CNC(=O)[C@H](Cc2ccc(Cl)c(Cl)c2)NC(=O)[C@H](N)Cc2ccccc2)cn1 [Example 54, (R)-2-Amino-N-[(S)-1-[(6-amino-pyridin-3-ylmethyl)-carbamoyl]-2-(3,4-dichloro-phenyl)-ethyl]-3-phenyl-propionamide] | > 10 | > 10 | 0.00029 | > 10 | > 10
15 | Nc1ccc(CNC(=O)[C@H](Cc2ccc(Cl)c(Cl)c2)NC(=O)[C@H](N)Cc2ccc(Cl)cc2)cn1 [Example 59, (R)-2-Amino-N-[(S)-1-[(6-amino-pyridin-3-ylmethyl)-carbamoyl]-2-(3,4-dichloro-phenyl)-ethyl]-3-(4-chloro-phenyl)-propionamide] | > 10 | > 10 | 0.00056 | > 10 | > 10
16 | CN[C@H](Cc1ccccc1)C(=O)N[C@@H](Cc1ccc(Cl)c(Cl)c1)C(=O)NCc1ccc(N)nc1 [Example 60, (R)—N-[(S)-1-[(6-Amino-pyridin-3-ylmethyl)-carbamoyl]-2-(3,4-dichloro-phenyl)-ethyl]-2-methylamino-3-phenyl-propionamide] | > 10 | > 10 | 0.00071 | > 10 | > 10
17 | CC(C)(C)[C@@H](N)C(=O)N[C@@H](Cc1ccc(Cl)c(Cl)c1)C(=O)NCc1ccc(N)nc1 [Example 61, (R)-2-Amino-N-[(S)-1-[(6-amino-pyridin-3-ylmethyl)-carbamoyl]-2-(3,4-dichloro-phenyl)-ethyl]-3,3-dimethyl-butyramide] | > 10 | > 10 | 0.0004 | > 10 | > 10
18 | CN[C@H](C)C(=O)N[C@@H](Cc1ccc(Cl)c(Cl)c1)C(=O)NCc1ccc(N)nc1 [Example 62, (R)—N-[(S)-1-[(6-Amino-pyridin-3-ylmethyl)-carbamoyl]-2-(3,4-dichloro-phenyl)-ethyl]-2-methylamino-propionamide] | > 10 | > 10 | 0.0024 | > 10 | > 10
19 | CC(C)N(C)[C@@H](C)C(=O)N[C@@H](C(=O)NCc1ccc(N)nc1)C(C1CCCCC1)C1CCCCC1 [Example 433, (S)—N-{(R)-1-[(6-Amino-pyridin-3-ylmethyl)-carbamoyl]-2,2-dicyclohexyl-ethyl}-2-(isopropyl-methyl-amino)-propionamide] | – | – | 0.1 | – | –
20 | CC(C)N(C)[C@@H](C)C(=O)N[C@@H](C(=O)NCc1ccc(N)nc1)C(O)C1CCCCC1 (stereo partly drawn) [Example 435, (S)—N-{(R)-1-[(6-Amino-pyridin-3-ylmethyl)-carbamoyl]-2-cyclohexyl-2-hydroxy-ethyl}-2-(isopropyl-methyl-amino)-propionamide] | – | – | 0.005 | – | –
21 | CC(C1CCCCC1)[C@@H](NC(=O)[C@H](C)N(C)C(C)C)C(=O)NCc1ccc(N)nc1 (stereo partly drawn) [Example 436, (R)—N-(6-Amino-pyridin-3-ylmethyl)-3-cyclohexyl-2-[(S)-2-(isopropyl-methyl-amino)-propionylamino]-butyramide] | – | – | 0.0036 | – | –
22 | CCN(CC)C(C)C(=O)N(C)C(CC1CCCCC1)C(=O)NCc1ccc(N)nc1 [Example 438, S)—N-{(S)-1-[(6-Amino-pyridin-3-ylmethyl)-carbamoyl]-2-cyclohexyl-ethyl}-2-diethylamino-N-methyl-propionamide] | – | – | 0.0054 | – | –
23 | (R)—N-[(S)-1-[(6-Amino-pyridin-3-ylmethyl)-carbamoyl]-2-(3,4-dichloro-phenyl)-ethyl]-3-methyl-2-methylamino-butyramide [Example 340] | – | – | 0.00038 | – | –
24 | (S)—N-{(R)-1-[(6-Amino-pyridin-3-ylmethyl)-carbamoyl]-2,2-dicyclohexyl-ethyl}-2-dimethylamino-propionamide [Example 434] | – | – | 0.0439 | – | –
